This note sets out measurements from PubChem BioAssay (NCI).

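Five concentrations, 48 hours, 96-well plates. At the GI50, growth is halved. At the TGI there is no net growth.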

The first assay concerns HL-60(TB) leukemia. As to the kind of experiment: growth of human tumour cells (NCI), 48 h.
Turning to `C[C@]12CC[C@H](O)C[C@H]1CC[C@@H]1[C@@H]2CC[C@]2(C)[C@@H](C3=CC(=O)OC3)CC[C@]12O`, the GI50 is 0.0391 µM and the TGI amounted to 0.272 µM.

Another assay concerns HOP-62 NSCLC. As to the kind of experiment: growth of human tumour cells (NCI), 48 h.
With `Cc1ccc(S(=O)(=O)OCC(=O)O)cc1`, the TGI was more than 100 µM.

The compound `O=c1[nH]cnc2cccc(Cl)c12` came in with a TGI of more than 100 µM.

`C=C1C(=O)CC2C(=O)C(C)(O)CC/C=C(\C)C(=O)CC12` (stereo not drawn) registered a TGI of more than 100 µM.

`C[C@]12CC[C@H](O)C[C@H]1CC[C@@H]1[C@@H]2CC[C@]2(C)[C@@H](C3=CC(=O)OC3)CC[C@]12O`: the GI50 is 0.0313 µM and the TGI amounted to 0.169 µM.

Another assay relates to HOP-92 NSCLC. As to the kind of experiment: growth of human tumour cells (NCI), 48 h.
`Cc1ccc(S(=O)(=O)OCC(=O)O)cc1` gave a TGI of more than 100 µM.

`C=C1C(=O)CC2C(=O)C(C)(O)CC/C=C(\C)C(=O)CC12` (stereo not drawn) yielded a TGI of more than 57.3 µM.

On to `C[C@]12CC[C@H](O)C[C@H]1CC[C@@H]1[C@@H]2CC[C@]2(C)[C@@H](C3=CC(=O)OC3)CC[C@]12O`, for which the TGI is 1.1 µM.

The next assay relates to HS 578T breast. Description: growth of human tumour cells (NCI), 48 h.
For the compound `Cc1ccc(S(=O)(=O)OCC(=O)O)cc1`, the TGI was more than 100 µM.

On to `O=c1[nH]cnc2cccc(Cl)c12`, for which the TGI was more than 100 µM.

`C=C1C(=O)CC2C(=O)C(C)(O)CC/C=C(\C)C(=O)CC12` (stereo not drawn) came in with a TGI of 43.5 µM.

Compound `C[C@]12CC[C@H](O)C[C@H]1CC[C@@H]1[C@@H]2CC[C@]2(C)[C@@H](C3=CC(=O)OC3)CC[C@]12O` displayed a TGI of more than 100 µM.

In another assay the test system is HT29 colon. Description: growth of human tumour cells (NCI), 48 h.
As for `Cc1ccc(S(=O)(=O)OCC(=O)O)cc1`, the TGI was more than 100 µM.

Compound `O=c1[nH]cnc2cccc(Cl)c12` displayed a TGI of more than 100 µM.

Turning to `C=C1C(=O)CC2C(=O)C(C)(O)CC/C=C(\C)C(=O)CC12` (stereo not drawn), the TGI was more than 64.9 µM.

Compound `C[C@]12CC[C@H](O)C[C@H]1CC[C@@H]1[C@@H]2CC[C@]2(C)[C@@H](C3=CC(=O)OC3)CC[C@]12O` yielded a TGI of 1.6 µM.

The subject of the next assay is IGROV1 ovarian. Description: growth of human tumour cells (NCI), 48 h.
In the case of `Cc1ccc(S(=O)(=O)OCC(=O)O)cc1`, the TGI is more than 100 µM.

In the case of `O=c1[nH]cnc2cccc(Cl)c12`, the TGI was more than 100 µM.

`C=C1C(=O)CC2C(=O)C(C)(O)CC/C=C(\C)C(=O)CC12` (stereo not drawn) came in with a TGI of 37.5 µM.

For `C[C@]12CC[C@H](O)C[C@H]1CC[C@@H]1[C@@H]2CC[C@]2(C)[C@@H](C3=CC(=O)OC3)CC[C@]12O`, the TGI amounted to 2.82 µM.

A further assay has as its system K-562 leukemia. As to the kind of experiment: growth of human tumour cells (NCI), 48 h.
Turning to `Cc1ccc(S(=O)(=O)OCC(=O)O)cc1`, the TGI was more than 100 µM.

Regarding `O=c1[nH]cnc2cccc(Cl)c12`, the TGI is more than 100 µM.

Consider `C=C1C(=O)CC2C(=O)C(C)(O)CC/C=C(\C)C(=O)CC12` (stereo not drawn), for which the TGI is more than 44.1 µM.

For the compound `C[C@]12CC[C@H](O)C[C@H]1CC[C@@H]1[C@@H]2CC[C@]2(C)[C@@H](C3=CC(=O)OC3)CC[C@]12O`, the TGI was determined as 1.42 µM.

The next assay concerns KM12 colon. Description: growth of human tumour cells (NCI), 48 h.
Turning to `O=c1[nH]cnc2cccc(Cl)c12`, the TGI is more than 100 µM.

As for `C=C1C(=O)CC2C(=O)C(C)(O)CC/C=C(\C)C(=O)CC12` (stereo not drawn), the TGI was more than 100 µM.

As to `C[C@]12CC[C@H](O)C[C@H]1CC[C@@H]1[C@@H]2CC[C@]2(C)[C@@H](C3=CC(=O)OC3)CC[C@]12O`, the TGI was determined as 3.27 µM.

The subject of the next assay is LOX IMVI melanoma. Description: growth of human tumour cells (NCI), 48 h.
`Cc1ccc(S(=O)(=O)OCC(=O)O)cc1` came in with a TGI of more than 100 µM.

`C=C1C(=O)CC2C(=O)C(C)(O)CC/C=C(\C)C(=O)CC12` (stereo not drawn) registered a TGI of 35.4 µM.

The compound `C[C@]12CC[C@H](O)C[C@H]1CC[C@@H]1[C@@H]2CC[C@]2(C)[C@@H](C3=CC(=O)OC3)CC[C@]12O` showed a TGI of 0.533 µM.

The next assay deals with M14 melanoma. As to the kind of experiment: growth of human tumour cells (NCI), 48 h.
The compound `Cc1ccc(S(=O)(=O)OCC(=O)O)cc1` came in with a TGI of more than 100 µM.

Consider `O=c1[nH]cnc2cccc(Cl)c12`, for which the TGI is more than 100 µM.

As for `C=C1C(=O)CC2C(=O)C(C)(O)CC/C=C(\C)C(=O)CC12` (stereo not drawn), the TGI is 31 µM.

For the compound `C[C@]12CC[C@H](O)C[C@H]1CC[C@@H]1[C@@H]2CC[C@]2(C)[C@@H](C3=CC(=O)OC3)CC[C@]12O`, the TGI was found to be 1.6 µM.

In a further assay the test system is MALME-3M melanoma. Description: growth of human tumour cells (NCI), 48 h.
`Cc1ccc(S(=O)(=O)OCC(=O)O)cc1` came in with a TGI of more than 100 µM.

In the case of `O=c1[nH]cnc2cccc(Cl)c12`, the TGI was more than 100 µM.

Compound `C=C1C(=O)CC2C(=O)C(C)(O)CC/C=C(\C)C(=O)CC12` (stereo not drawn) came in with a TGI of 27.1 µM.

The compound `C[C@]12CC[C@H](O)C[C@H]1CC[C@@H]1[C@@H]2CC[C@]2(C)[C@@H](C3=CC(=O)OC3)CC[C@]12O` came in with a TGI of 0.523 µM.

The test system of a further assay is MCF7 breast. As to the kind of experiment: growth of human tumour cells (NCI), 48 h.
As to `O=c1[nH]cnc2cccc(Cl)c12`, the TGI is more than 100 µM.

`C=C1C(=O)CC2C(=O)C(C)(O)CC/C=C(\C)C(=O)CC12` (stereo not drawn) came in with a TGI of 36.6 µM.

A further assay has as its system MDA-MB-231 breast. As to the kind of experiment: growth of human tumour cells (NCI), 48 h.
Take `Cc1ccc(S(=O)(=O)OCC(=O)O)cc1`: the TGI was more than 100 µM.

Regarding `O=c1[nH]cnc2cccc(Cl)c12`, the TGI was more than 100 µM.

`C=C1C(=O)CC2C(=O)C(C)(O)CC/C=C(\C)C(=O)CC12` (stereo not drawn) returned a TGI of 74.7 µM.

`C[C@]12CC[C@H](O)C[C@H]1CC[C@@H]1[C@@H]2CC[C@]2(C)[C@@H](C3=CC(=O)OC3)CC[C@]12O` came in with a TGI of more than 62.2 µM.

The next assay has as its system MDA-MB-435. As to the kind of experiment: growth of human tumour cells (NCI), 48 h.
Compound `C=C1C(=O)CC2C(=O)C(C)(O)CC/C=C(\C)C(=O)CC12` (stereo not drawn) showed a TGI of more than 55.7 µM.

Turning to `C[C@]12CC[C@H](O)C[C@H]1CC[C@@H]1[C@@H]2CC[C@]2(C)[C@@H](C3=CC(=O)OC3)CC[C@]12O`, the TGI was 1.02 µM.

For a further assay, the system named is MDA-N. As to the kind of experiment: growth of human tumour cells (NCI), 48 h.
The compound `Cc1ccc(S(=O)(=O)OCC(=O)O)cc1` came in with a TGI of more than 100 µM.

In the case of `O=c1[nH]cnc2cccc(Cl)c12`, the TGI is more than 100 µM.

`C=C1C(=O)CC2C(=O)C(C)(O)CC/C=C(\C)C(=O)CC12` (stereo not drawn) came in with a TGI of 37.1 µM.

As for `C[C@]12CC[C@H](O)C[C@H]1CC[C@@H]1[C@@H]2CC[C@]2(C)[C@@H](C3=CC(=O)OC3)CC[C@]12O`, the TGI is 0.806 µM.

The next assay concerns MOLT-4 leukemia. Description: growth of human tumour cells (NCI), 48 h.
Turning to `Cc1ccc(S(=O)(=O)OCC(=O)O)cc1`, the TGI was more than 100 µM.

In turn, `O=c1[nH]cnc2cccc(Cl)c12` showed a TGI of more than 100 µM.

For the compound `C=C1C(=O)CC2C(=O)C(C)(O)CC/C=C(\C)C(=O)CC12` (stereo not drawn), the TGI was found to be 17.1 µM.

Compound `C[C@]12CC[C@H](O)C[C@H]1CC[C@@H]1[C@@H]2CC[C@]2(C)[C@@H](C3=CC(=O)OC3)CC[C@]12O` came in with a TGI of 0.0537 µM.

For another assay, the system named is NCI-H226 lung. Description: growth of human tumour cells (NCI), 48 h.
On to `O=c1[nH]cnc2cccc(Cl)c12`, for which the TGI was more than 100 µM.

Compound `C=C1C(=O)CC2C(=O)C(C)(O)CC/C=C(\C)C(=O)CC12` (stereo not drawn) yielded a TGI of more than 77.3 µM.
